Assay results: patent US20250114377A1, “TWO-PRONGED TREATMENT FOR NIEMANN PICK TYPE C DISEASE” (UNIVERSITY OF NOTRE DAME DU LAC, priority 2022, published 2025)

Key:
[1] = tested on: LE/L membrane tubule projection, COS-7 cells; experiment: LE/L tubule projection of NPC1-containing membranes with microtubule drugs; type: cell-based; settings: FP-tagged NPC1 membranes, live-cell imaging
Source text: Although it is well-accepted that mutations in NPC1 are responsible for ˜95% of human cases of NPC disease, there is less consensus on the specific cellular activities NPC1 is responsible for. For example, both the N-terminal domain and the sterol-sensing domain of NPC1 are thought to bind cholesterol and mediate the movement of lumenal cholesterol across the limiting membrane of LE/Ls. However, the lipids that over-accumulate in NPC disease are not limited to cholesterol and include oxysterols, sphingolipids, gangliosides and GPI-anchored proteins. Furthermore, the pathological accumulations of cholesterol have been proposed to affect the functional state of LE/Ls directly, including perturbing calcium uptake, autophagy/mitophagy and the thickness of the glycocalyx. However, the specific ways in which NPC1 mutations affect these parameters remain unclear. With this wide range of unknowns in mind, we generated a FP-tagged NPC1 plasmid construct for expression in mammalian cells. […] Also overlapping with previous observations, LE/L membranes incorporating FP-tagged NPC1 projected a population of long, slender, dynamic membrane tubules that emerged from the surface of stationary LE/Ls and extended towards the cell periphery (See Sterling, FIG. 1A and Sup Vid. 1). […]

lysosomal tubulation = experiment: Rescue of lysosomal tubulation with purified oxysterols in LDL-depleted media (FIG. 4); type: cell-based; settings: media depleted of LDL supplemented with the oxysterol; 24-HC p<0.005, 25-HC p<0.0001
Method: FIG. 4. Rescue of Lysosomal Tubulation with Purified Oxysterols. Measurements of lysosomal tubulation comparing control complete media (Control) to media depleted of LDL (LDL−) and depleted media supplemented with 27-hydroxycholesterol (27-HC), 24-hydroxycholesterol (24-HC) or 25-hydroxycholesterol (25-HC).
Fixed and live-cell imaging was performed on COS-7 cells grown in Dulbecco's Modified Eagle's Medium (DMEM) supplemented with 10% fetal bovine serum, 1% L-glutamine, and penicillin/streptomycin (Sigma-Aldrich). Transfections were performed using either Lipofectamine (Life Technologies), X-treme Gene DNA Transfection reagent (Roche, Indianapolis, IN) or Nanofect (Allstem, Richmond, CA). J774A.1 mouse macrophages were provided and cultured in the same media. Cells were tested for contamination using PCR-based test kits (Sartorius, Inc.; Cat #SMB95-1001).
Microscopy experiments were performed on a Zeiss Axiovert 200M (Thornwood, NY) run by Metamorph software (Sunnyvale, CA). Fixed and live cell imaging data was collected using either a Photometrics Coolsnap HQ or Cascade 1k CCD camera (Tucson, AZ). Timelapse imaging of cells expressing NPC1-EGFP and mCherry-StARD9 utilized a Dual-view camera (Photometrics) adapter to allow simultaneous acquisition of green and red channels at each timepoint. Kymographs were generated in Metamorph using a 1p m slice from each frame.
To test this idea, we treated either NPC1 mutant (null or I1061T) or StARD9 mutant (null or truncation mutant) cells with 27-HC in a cocktail that delivers it into the cytoplasm independent of receptor-mediated endocytosis. […] Next, we treated NPC1(−/−) mice with 27-HC by i.p. delivery.

## COC(=O)Nc1nc2ccc(C(=O)c3cccs3)cc2[nH]1 [nocodazole]
[1]
  Effect on LE/L tubule projection: inhibited

## C[C@H](CCCC(C)(C)O)[C@H]1CC[C@H]2[C@@H]3CC=C4C[C@@H](O)CC[C@]4(C)[C@H]3CC[C@]12C [25-HC, 25-hydroxycholesterol]
Lysosomal tubulation
  Rescue of lysosomal tubulation compared with 27-HC: significantly lower that 27-HC

## CC(C)C(O)CC[C@@H](C)[C@H]1CC[C@H]2[C@@H]3CC=C4C[C@@H](O)CC[C@]4(C)[C@H]3CC[C@]12C (stereo partly shown) [24-HC, 24-hydroxycholesterol]
Lysosomal tubulation
  Rescue of lysosomal tubulation compared with 27-HC: significantly lower that 27-HC

## CC(=O)O[C@H]1C(=O)[C@@]2(C)[C@H]([C@H](OC(=O)c3ccccc3)[C@]3(O)C[C@H](OC(=O)[C@H](O)[C@@H](NC(=O)c4ccccc4)c4ccccc4)C(C)=C1C3(C)C)[C@]1(OC(C)=O)CO[C@@H]1C[C@@H]2O [taxol]
[1]
  Effect on LE/L tubule projection: inhibited
